US10618918B2, “Substituted boronic acids as antimicrobials” (priority 2015, dated 2020)
Where two headings read alike, the source gives them in different places.

Assays:
KP1004 KPC-2 [1] = test: Biapenem potentiation (MPC@1), strain KP1004 KPC-2; assay type: cell-based; conditions: minimum BLI concentration inhibiting growth with biapenem 1 μg/mL; tested up to 40 μg/mL
Description: (§1) Biapenem was present in the test medium at 1 μg/mL. […] Table 3 summarizes the BLI potency of biapenem potentiation (MPC@1) for two strains overexpressing class A (KPC) and class D (OXA-48) carbapenemases. Biapenem MIC for each strain is also shown.

KP1086 OXA-48 = test: Biapenem potentiation (MPC@1), strain KP1086 OXA-48; assay type: cell-based; conditions: minimum BLI concentration inhibiting growth with biapenem 1 μg/mL; tested up to 40 μg/mL
Description: as §1

AB1053 OXA-72 = test: Meropenem potentiation (MPC@8), strain AB1053 OXA-72; assay type: cell-based, Acinetobacter baumannii; conditions: minimum BLI concentration inhibiting growth with meropenem 8 μg/mL; tested up to 20 μg/mL
AB1054 OXA-23 = test: Meropenem potentiation (MPC@8), strain AB1054 OXA-23; assay type: cell-based, Acinetobacter baumannii
[2] = target: T1, purified class A, C and D enzymes (β-lactamases) (Acinetobacter baumannii, UniProt Q9L4P2); test: biochemical; assay type: biochemical; conditions: purified OXA-23; nitrocefin (NCF) as reporter substrate
T1 construct: rows headed: Ki (OXA-23, NCF), uM; other: purified OXA-23; nitrocefin (NCF) as reporter substrate

[3] = target: purified class A, C and D enzymes (β-lactamases) (Enterobacter cloacae, UniProt P05364); test: biochemical; assay type: biochemical
[4] = target: purified class A, C and D enzymes (β-lactamases) (Escherichia coli, UniProt Q9L5C7); test: biochemical; assay type: biochemical
[5] = target: purified class A, C and D enzymes (β-lactamases) (Klebsiella pneumoniae, UniProt Q6XEC0); test: biochemical; assay type: biochemical
[6] = target: purified class A, C and D enzymes (β-lactamases) (Klebsiella pneumoniae, UniProt Q9F663); test: biochemical; assay type: biochemical
[7] = target: T2, purified class A, C and D enzymes (β-lactamases) (Pseudomonas aeruginosa, UniProt P24735); test: biochemical; assay type: biochemical
T2 construct: rows headed: Ki (Pa-AmpC, NCF), uM; other: purified Pa-AmpC; nitrocefin (NCF) as reporter substrate

[8] = target: T3, purified class A, C and D enzymes (β-lactamases) (UniProt P0AD64, L31Q/G234S/E235K, species not given); test: biochemical; assay type: biochemical
T3 construct: Ki (SHV-12, NCF), uM; other: purified SHV-12; nitrocefin (NCF) as reporter substrate
T3 sequence (P0AD64 1-286 L31Q/G234S/E235K): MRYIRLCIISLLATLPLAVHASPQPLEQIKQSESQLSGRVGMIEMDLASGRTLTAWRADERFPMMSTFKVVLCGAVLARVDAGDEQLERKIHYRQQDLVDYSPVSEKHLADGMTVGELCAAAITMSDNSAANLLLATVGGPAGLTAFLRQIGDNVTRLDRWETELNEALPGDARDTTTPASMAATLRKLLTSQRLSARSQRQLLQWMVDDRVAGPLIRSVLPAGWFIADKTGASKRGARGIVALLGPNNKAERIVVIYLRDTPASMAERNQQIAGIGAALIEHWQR

PAM1032/KPC-2 = test: Biapenem potentiation MPC64 in PAM1032/KPC-2 (efflux proficient, overexpresses MexAB-OprM); assay type: cell-based, Pseudomonas aeruginosa
Description: (§2) Efflux of BLIs from Pseudomonas aeruginosa by the MexAB-OprM efflux pump was also evaluated. The plasmid expressing the gene encoding KPC-2 was introduced into two strains of P. aeruginosa, PAM1032 and PAM 1154 that overexpressed or lacked MexAB-OprM, respectively. […] Potency of BLIs to potentiate biapenem in these strains was determined.

PAM1154/KPC-2 = test: Biapenem potentiation MPC64 in PAM1154/KPC-2 (efflux deficient, lacks MexAB-OprM); assay type: cell-based, Pseudomonas aeruginosa
Description: as §2

ECL1002 = test: Aztreonam potentiation (MPC@4), strain ECL1002; conditions: minimum BLI concentration inhibiting growth with aztreonam 4 μg/mL; tested up to 40 μg/mL
ec308 SHV-5 = test: Aztreonam potentiation (MPC@4), strain ec308 SHV-5; conditions: minimum BLI concentration inhibiting growth with aztreonam 4 μg/mL; tested up to 40 μg/mL
ec302 TEM-10 = test: Aztreonam potentiation (MPC@4), strain ec302 TEM-10; conditions: minimum BLI concentration inhibiting growth with aztreonam 4 μg/mL; tested up to 40 μg/mL
KP1004 KPC-2 [9] = test: Aztreonam potentiation (MPC@4), strain KP1004 KPC-2
EC1010 CMY-6 = test: Aztreonam potentiation (MPC@4), strain EC1010 CMY-6
KP1010 SHV-12 = test: Aztreonam potentiation (MPC@4), strain KP1010 SHV-12
KP1009 CTX-M-15 = test: Aztreonam potentiation (MPC@4), strain KP1009 CTX-M-15; conditions: minimum BLI concentration inhibiting growth with aztreonam 4 μg/mL; tested up to 40 μg/mL
KP1005 CTX-M-14 = test: Tigemonam potentiation (MPC@4), strain KP1005 CTX-M-14
biochemical = assay type: biochemical
[10] = minimum BLI concentration inhibiting growth with aztreonam 4 μg/mL, tested up to 40 μg/mL

purified class A, C and D enzymes (β-lactamases) (Escherichia coli, UniProt Q9L5C7), sequence (Q9L5C7 entry or part of it): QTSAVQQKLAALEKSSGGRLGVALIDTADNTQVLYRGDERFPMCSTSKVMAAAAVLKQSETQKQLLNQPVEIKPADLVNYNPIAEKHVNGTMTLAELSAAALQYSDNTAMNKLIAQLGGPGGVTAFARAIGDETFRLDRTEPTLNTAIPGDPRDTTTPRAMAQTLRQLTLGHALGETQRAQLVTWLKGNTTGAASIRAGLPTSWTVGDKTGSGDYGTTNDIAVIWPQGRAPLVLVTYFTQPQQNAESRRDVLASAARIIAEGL
T2 sequence (P24735 whole entry): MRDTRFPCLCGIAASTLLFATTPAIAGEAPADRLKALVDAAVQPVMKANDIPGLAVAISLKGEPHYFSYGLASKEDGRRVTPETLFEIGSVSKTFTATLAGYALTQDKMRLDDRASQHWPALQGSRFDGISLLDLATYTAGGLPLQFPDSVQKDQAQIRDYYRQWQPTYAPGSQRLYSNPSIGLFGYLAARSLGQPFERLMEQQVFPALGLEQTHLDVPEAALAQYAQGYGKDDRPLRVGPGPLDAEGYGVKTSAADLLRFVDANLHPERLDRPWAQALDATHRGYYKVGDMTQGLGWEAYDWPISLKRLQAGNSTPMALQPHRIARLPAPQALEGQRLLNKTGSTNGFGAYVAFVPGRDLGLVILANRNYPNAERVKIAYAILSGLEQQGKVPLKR
purified class A, C and D enzymes (β-lactamases) (Enterobacter cloacae, UniProt P05364), sequence (P05364 21-381): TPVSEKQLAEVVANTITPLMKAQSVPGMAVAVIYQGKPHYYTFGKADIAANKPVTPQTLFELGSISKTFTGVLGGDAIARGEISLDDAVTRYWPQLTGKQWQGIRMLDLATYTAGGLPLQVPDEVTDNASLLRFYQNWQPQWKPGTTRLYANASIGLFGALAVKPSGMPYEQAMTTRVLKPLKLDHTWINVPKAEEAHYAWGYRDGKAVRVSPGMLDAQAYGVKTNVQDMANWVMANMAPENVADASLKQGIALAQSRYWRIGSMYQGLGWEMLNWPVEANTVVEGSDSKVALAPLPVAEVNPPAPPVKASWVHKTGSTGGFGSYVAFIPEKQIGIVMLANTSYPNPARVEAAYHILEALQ
T1 sequence (Q9L4P2 whole entry): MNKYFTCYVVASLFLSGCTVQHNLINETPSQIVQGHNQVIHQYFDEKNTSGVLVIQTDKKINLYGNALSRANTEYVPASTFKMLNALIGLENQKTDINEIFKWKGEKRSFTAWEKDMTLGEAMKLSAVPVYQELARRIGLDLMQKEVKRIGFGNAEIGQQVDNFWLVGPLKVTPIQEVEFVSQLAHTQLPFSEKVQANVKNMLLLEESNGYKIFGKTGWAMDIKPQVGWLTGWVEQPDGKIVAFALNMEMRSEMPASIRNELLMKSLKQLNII

| Structure (SMILES) | BPM MPC1 KP1004 KPC-2 (KP1004 KPC-2 [1]) | BPM MPC1 OXA-48 KP1086 (KP1086 OXA-48) | MPM MPC8 AB1053 OXA-72 (AB1053 OXA-72) | AZT MPC4 ECL1002 (ECL1002) | AZT MPC4 SHV-5 ec308 (ec308 SHV-5) | AZT MPC4 TEM-10 ec302 (ec302 TEM-10) | AZT MPC4 CTX-M-15 KP1009 (KP1009 CTX-M-15) | MPM MPC8 AB1054 OXA-23 (AB1054 OXA-23) | Ki (biochemical) | Ki (P99, NCF), uM [3] | Ki (CTX-M-14, NCF), uM [4] | Ki (OXA-48, NCF), uM [5] | Ki (KPC-2, NCF), uM [6] | Ki [7] | PAM1032/KPC-2 Biapenem MPC64 (PAM1032/KPC-2) | PAM1154/KPC-2 Biapenem MPC64 (PAM1154/KPC-2) | AZT MPC4 KPC-2 KP1004 (KP1004 KPC-2 [9]) | AZT MPC4 CMY-6 EC1010 (EC1010 CMY-6) | AZT MPC4 SHV-12 KP1010 (KP1010 SHV-12) | TIG MPC4 CTX-M-14 KP1005 (KP1005 CTX-M-14) | also measured |
| --- | --- | --- | --- | --- | --- | --- | --- | --- | --- | --- | --- | --- | --- | --- | --- | --- | --- | --- | --- | --- | --- |
| CSCC(=O)NC1CB(O)Oc2c(C(=O)O)cccc21 (centres unmarked) [Compound 3, 2-HYDROXY-4-(2-(METHYLTHIO)ACETAMIDO)-3,4-DIHYDRO-2H-BENZO[E][1.2]OXABORININE-8-CARBOXYLIC ACID] | X (X = MPC@1 ≤ 5 μg/mL) | X (X = MPC@1 ≤ 5 μg/mL) | Y (Y = 5 μg/mL < MPC@1 ≤ 20 μg/mL) | X (X = MPC@4 ≤ 5 μg/mL) | X (X = MPC@4 ≤ 5 μg/mL) | X (X = MPC@4 ≤ 5 μg/mL) | X (X = MPC@4 ≤ 5 μg/mL) | – | – | – | – | – | – | – | – | – | – | – | – | – | MPM MPC8 AB1054 OXA-23 (AB1054 OXA-23; minimum BLI concentration inhibiting growth with meropenem 8 μg/mL, tested up to 20 μg/mL): Z (Z = MPC@1 > 20 μg/mL); Ki [2]: < 100 nM; Ki (P99, NCF), uM ([3]; purified P99, nitrocefin (NCF) as reporter substrate): X (X = Ki ≤ 0.1 μM); Ki (CTX-M-14, NCF), uM ([4]; purified CTX-M-14, nitrocefin (NCF) as reporter substrate): X (X = Ki ≤ 0.1 μM); Ki (OXA-48, NCF), uM ([5]; purified OXA-48, nitrocefin (NCF) as reporter substrate): X (X = Ki ≤ 0.1 μM); Ki (KPC-2, NCF), uM ([6]; purified KPC-2, nitrocefin (NCF) as reporter substrate): X (X = Ki ≤ 0.1 μM); Ki ([7]; purified Pa-AmpC, nitrocefin (NCF) as reporter substrate, read-out: Ki (Pa-AmpC, NCF)): < 100 nM; Ki ([8]; purified SHV-12; nitrocefin (NCF) as reporter substrate; read-out: Ki (SHV-12, NCF)): < 100 nM; PAM1032/KPC-2 Biapenem MPC64 (PAM1032/KPC-2; BLI concentration decreasing biapenem MIC 64-fold, from 32 μg/ml to 0.5 μg/ml, efflux proficient strain): 20; PAM1154/KPC-2 Biapenem MPC64 (PAM1154/KPC-2; BLI concentration decreasing biapenem MIC 64-fold, from 32 μg/ml to 0.5 μg/ml, efflux deficient strain): 2.5; AZT MPC4 KPC-2 KP1004 (KP1004 KPC-2 [9]; [10]): X (X = MPC@4 ≤ 5 μg/mL); AZT MPC4 CMY-6 EC1010 (EC1010 CMY-6; [10]): X (X = MPC@4 ≤ 5 μg/mL); AZT MPC4 SHV-12 KP1010 (KP1010 SHV-12; [10]): X (X = MPC@4 ≤ 5 μg/mL); TIG MPC4 CTX-M-14 KP1005 (KP1005 CTX-M-14; minimum BLI concentration inhibiting growth with tigemonam 4 μg/mL, tested up to 40 μg/mL): X (X = MPC@4 ≤ 5 μg/mL) |
| O=C([O-])c1nccc2c1O[B-](O)(O)CC2.[Na+].[Na+] [Compound 6, DISODIUM; 4,4-DIHYDROXY-5-OXA-8-AZA-4-BORANUIDABICYCLO[4.4.0]DECA-1(6),7,9-TRIENE-7-CARBOXYLATE] | X (X = MPC@1 ≤ 5 μg/mL) | X (X = MPC@1 ≤ 5 μg/mL) | X (X = MPC@1 ≤ 5 μg/mL) | X (X = MPC@4 ≤ 5 μg/mL) | Y (Y = 5 μg/mL < MPC@4 ≤ 20 μg/mL) | X (X = MPC@4 ≤ 5 μg/mL) | X (X = MPC@4 ≤ 5 μg/mL) | X (key: X = MPC@1 ≤ 5 μg/mL; Y = 5 μg/mL < MPC@1 ≤ 20 μg/mL; Z = MPC@1 > 20 μg/mL) | < 100 nM | X (key: X = Ki ≤ 0.1 μM; Y = 0.1 μM < Ki ≤ 1 μM; Z = Ki > 1 μM) | X (key: X = Ki ≤ 0.1 μM; Y = 0.1 μM < Ki ≤ 1 μM; Z = Ki > 1 μM) | X (key: X = Ki ≤ 0.1 μM; Y = 0.1 μM < Ki ≤ 1 μM; Z = Ki > 1 μM) | X (key: X = Ki ≤ 0.1 μM; Y = 0.1 μM < Ki ≤ 1 μM; Z = Ki > 1 μM) | < 100 nM | 5 | 0.3 | X (key: X = MPC@4 ≤ 5 μg/mL; Y = 5 μg/mL < MPC@4 ≤ 20 μg/mL; Z = MPC@4 > 20 μg/mL) | X (key: X = MPC@4 ≤ 5 μg/mL; Y = 5 μg/mL < MPC@4 ≤ 20 μg/mL; Z = MPC@4 > 20 μg/mL) | X (key: X = MPC@4 ≤ 5 μg/mL; Y = 5 μg/mL < MPC@4 ≤ 20 μg/mL; Z = MPC@4 > 20 μg/mL) | Y (key: X = MPC@4 ≤ 5 μg/mL; Y = 5 μg/mL < MPC@4 ≤ 20 μg/mL; Z = MPC@4 > 20 μg/mL) | Ki ([8]; read-out: Ki (SHV-12, NCF); purified SHV-12; nitrocefin (NCF) as reporter substrate): < 100 nM |
| O=C([O-])c1c(F)ccc2c1O[B-](O)(O)CC2.[Na+].[Na+] [Compound 8, DISODIUM; 8-FLUORO-4,4-DIHYDROXY-5-OXA-4-BORANUIDABICYCLO[4.4.0]DECA-1(6),7,9-TRIENE-7-CARBOXYLATE] | X (X = MPC@1 ≤ 5 μg/mL) | X (X = MPC@1 ≤ 5 μg/mL) | X (X = MPC@1 ≤ 5 μg/mL) | X (X = MPC@4 ≤ 5 μg/mL) | X (X = MPC@4 ≤ 5 μg/mL) | X (X = MPC@4 ≤ 5 μg/mL) | X (X = MPC@4 ≤ 5 μg/mL) | X (key: X = MPC@1 ≤ 5 μg/mL; Y = 5 μg/mL < MPC@1 ≤ 20 μg/mL; Z = MPC@1 > 20 μg/mL) | < 100 nM | X (key: X = Ki ≤ 0.1 μM; Y = 0.1 μM < Ki ≤ 1 μM; Z = Ki > 1 μM) | X (key: X = Ki ≤ 0.1 μM; Y = 0.1 μM < Ki ≤ 1 μM; Z = Ki > 1 μM) | X (key: X = Ki ≤ 0.1 μM; Y = 0.1 μM < Ki ≤ 1 μM; Z = Ki > 1 μM) | X (key: X = Ki ≤ 0.1 μM; Y = 0.1 μM < Ki ≤ 1 μM; Z = Ki > 1 μM) | < 100 nM | 5 | 0.6 | X (key: X = MPC@4 ≤ 5 μg/mL; Y = 5 μg/mL < MPC@4 ≤ 20 μg/mL; Z = MPC@4 > 20 μg/mL) | X (key: X = MPC@4 ≤ 5 μg/mL; Y = 5 μg/mL < MPC@4 ≤ 20 μg/mL; Z = MPC@4 > 20 μg/mL) | X (key: X = MPC@4 ≤ 5 μg/mL; Y = 5 μg/mL < MPC@4 ≤ 20 μg/mL; Z = MPC@4 > 20 μg/mL) | X (key: X = MPC@4 ≤ 5 μg/mL; Y = 5 μg/mL < MPC@4 ≤ 20 μg/mL; Z = MPC@4 > 20 μg/mL) | – |
